Measurements reported in PMC3682882 (BMC Pharmacology & Toxicology, 2013).
Values belong to the molecule of their own block, whether it stands above or below them.

What was measured:
[1] = system: subjects with T2DM; experiment: Fluid intake, urine volume and fluid balance; format: in vivo, human; settings: Day 1, 0–24-hour interval, intake minus output
From the text: Total fluid intake, urine volume, and fluid balance (intake minus output) were summarized over the 0–24-hour interval of Day 1 and Day 2 and the 0–12-hour interval of Day 3 of each treatment period.

[2] = system: subjects with T2DM; experiment: Clinical safety and tolerability (adverse events, laboratory parameters, vital signs); format: in vivo, human; settings: N = 13
Experimental: (§1) For each treatment period, subjects were admitted to the clinical facility on the evening of Day -1 to undergo check-in procedures including a physical examination, 12-lead ECG, vital signs, clinical laboratory tests (chemistry, hematology and urinalysis), lactic acid measurement, fasting blood glucose measurement, alcohol screen, drugs of abuse screen and pregnancy test (if applicable). On each study day morning, a fasting blood sugar measurement was determined by glucose monitor. On Days 1 and 2, vital signs and a 12-lead ECG were recorded. Samples for clinical laboratory measure were also taken on Days 1 and 3. Subjects returned to the clinic 7–10 days following the last dosing day for a follow-up physical examination and laboratory evaluation. During the between-treatment intervals, subjects were provided with glucose monitors to measure fasting blood glucose concentrations; subjects were instructed as to how to recognize and treat symptoms of hypoglycemia. Adverse events were monitored throughout the entire study (randomization to follow-up visit). Any adverse events reported during the study were assessed by the investigator for intensity (mild, moderate, severe) and relationship to the study drug (causality). Where possible, all adverse events were followed until stabilization, resolution, or until the event was otherwise explained.

[3] = cited from earlier work
[4] = system: subjects with T2DM; experiment: 24-hour urine glucose excretion in subjects with T2DM; format: in vivo, human
Experimental: Urine was collected on Days 1 to 3 of each treatment period, and urine glucose concentrations were analyzed for the following intervals: 0–4 hours, 4–8 hours, 8–12 hours and 12–24 hours. The quantity of glucose and creatinine excreted in urine was determined by multiplying the urine glucose or creatinine concentration for each time interval by the volume of urine for the corresponding collection interval. The total 24-hour quantity of glucose excreted in urine on Day 2 was calculated by adding the amounts collected during each interval. Urine glucose and creatinine amounts were summarized for each collected interval and for the total 24-hour collection period.

[5] = system: subjects with T2DM; experiment: Fasting plasma glucose change from baseline; format: in vivo, human; settings: baseline pre-dose Day 1 to Day 2 and Day 3
Experimental: FPG concentrations were collected on Day -1, 1, 2 and 3. Changes in plasma glucose from baseline (Day 1) to Day 2 and 3 were calculated.

[6] = system: subjects with T2DM; experiment: Lactic acid concentration by treatment; format: in vivo, human; settings: during the three day treatment period
Experimental: as §1

[7] = clinical
From the text: Subjects were randomized to receive one of two treatment sequences depicted in Table 1. […] The last dose of drug for each study period was before breakfast on day 3. […] On the evening before each treatment period, subjects were admitted and confined to the clinical site for the duration of the 3-day treatment period. Pharmacokinetic (PK), pharmacodynamic (PD; urine glucose and FPG), and safety (adverse events, vital signs, ECG, clinical laboratory parameters including lactic acid) assessments were performed at check-in and throughout the treatment periods. For each treatment period, the PK sampling occurred on Day 3.
All sample times are relative to the time of the administration of the first dose of study medication on Day 3 of each period. […] Blood samples for remogliflozin etabonate, remogliflozin and GSK279782 were collected into tubes containing potassium-oxalate/ sodium fluoride, placed on ice and centrifuged at approximately 3000 rpm for 10 minutes at approximately 4°C. The harvested plasma was frozen at -70°C until analysis for remogliflozin etabonate, remogliflozin and GSK279782 concentrations.
The concentrations of remogliflozin etabonate, remogliflozin, and GSK279782 in deproteinized plasma samples and standards were determined by high-performance liquid chromatography (HPLC) with tandem mass spectrometry (MS/MS) using isotopically labelled internal standards ([^2H7]- remogliflozin etabonate, [^2H7]- remogliflozin and [^2H7]-GSK279782 as previously described.
Plasma proteins from a […] plasma aliquot were precipitated using acetonitrile containing the internal standard (200 ng mL-1). Samples were vortex mixed then centrifuged. The resulting supernatant was transferred and mixed with […] of HFBA buffer (water containing 10 mM ammonium acetate and 0.26% (v/v) of heptofluorobutyric acid) prior to injection. HPLC was performed on a Shimadzu LC-10A HPLC system. Chromatography was performed on a MAC-MOD Ace 3 C18, 4.6 × 50 mm column at a flow rate of 1.0 mL min-1. An isocratic mobile phase elution with 82:18 (v/v) HFBA buffer : Acetonitrile was used. Samples were analysed in positive ion mode by Turbo Ionspray LC/MS/MS with a PE/Sciex API 3000. The calibration range was 20 to 5000 ng mL-1. Performance of the method was assessed during a 3 day validation study using quality control samples at 5 concentrations 20, 80, 500, 4000 and 5000 ng mL-1.
Actual elapsed time from dosing was used to estimate all individual plasma PK parameters.
• Cmax and tmax were the actual observed values.
• AUC(0–12) or AUC(0–last) was calculated by a combination of linear and logarithmic trapezoidal methods. The linear trapezoidal method was used for all incremental trapezoids arising from increasing concentrations and the logarithmic trapezoidal method was used for those arising from decreasing concentrations.

[8] = system: subjects with T2DM; experiment: Percent of filtered glucose excreted in the urine; format: in vivo, human; settings: for percent filtered glucose excreted in urine, max / percent filtered glucose excreted in urine, mean (SD) / percent filtered glucose excreted in urine, median / percent filtered glucose excreted in urine, min: Day 2, N = 13; for percent of filtered glucose excreted in the urine, mean: combined 24 hour collection, Day 2
Experimental: Creatinine clearance (CLcr) was calculated on Day 2 and used to determine the percent of filtered glucose load excreted in urine. By using the urine collections on Day 2, CLcr was calculated as follows:
Clcr=totalamountofurinecreatinine0-xxhinterval/nearestassociatedserumcreatinine=urinecreatininemg/xxhours/serumcreatininemg/dL*100mL/dL/xx*60minutes/xxhours,
where urine creatinine (mg/xx hours) is the amount of […] excreted in a xx-hour period. Urine creatinine was calculated by multiplying the urine creatinine concentration by the urine volume (mL) for a 0-xxh time interval as follows:
urinecreatininemg/xxhours=urinecreatinineconcentrationmg/dL*intervalvolumemL/100mL/dL.
Percent of filtered glucose excreted in the urine was estimated for all collection intervals on Day 2 as follows:
GlucoseAmountExcreted/Clcr*PG*TimeIntervalorUrineglucosemg/dL*SerumCreatininemg/dL/urinecreatininemg/dL*PGmg/dL
where glucose amount excreted is the amount of glucose excreted during the xx-hour period, and CLcr is calculated for the xx-hour time interval. PG is the plasma glucose concentration reported closest to the midpoint of the time interval. Because only pre-dose PG was collected in this study, the pre-dose PG on Day 2 was used. Time interval is the number of minutes of urine collection for that interval.

[9] = Statistical comparison of PK parameters with and without co-administered drug (drug-drug interaction); format: in vivo, human
Experimental: Safety and PD parameters were summarized using descriptive statistics. […] The PROC MIXED from SAS (Version 8.2, Cary, NC, USA) was used to fit the model. The estimates and the 90% CI were exponentiated in order to obtain the ratio of geometric means and its CI. The assumptions underlying the model were assessed by visual inspection of residual plots. […] Tmax was analysed non-parametrically using Hodges–Lehmann method.

[10] = system: healthy subjects and subjects with T2DM; set-up: method as in PMID 21733056, PMID 23668634; settings: single oral doses up to 1000 mg in healthy subjects, up to 1000 mg BID for 2 weeks in T2DM; cited from earlier work
[11] = system: rats; settings: cited from earlier work
[12] = system: diabetic rodent models; settings: several diabetic rodent models; cited from earlier work
[13] = system: panel of metabolic enzymes and transporters, including organic cation transporters; set-up: method as in earlier work; settings: panel including organic cation transporters involved with metformin renal secretion; cited from earlier work
[14] = system: mice; settings: cited from earlier work
[15] = treatment for 2 weeks, subjects with T2DM; cited from earlier work
[16] = human, in vivo, 500 mg, AUC(0–12)

Compound: CN(C)C(=N)N=C(N)N [Metformin, reference compound]
- fluid balance (median) [1]: -775 mL
- Abdominal pain upper [2]: 0 n (%)
- Any Event [2]: 5 (38%) n (%)
- Back pain [2]: 2 (15%) n (%)
- Dizziness [2]: 1 (8%) n (%)
- Dyspepsia [2]: 0 n (%)
- Fatigue [2]: 1 (8%) n (%)
- Headache [2]: 2 (15%) n (%)
- Hypoglycemia [2]: 1 (8%) n (%)
- Muscle spasms [2]: 1 (8%) n (%)
- Nasopharyngitis [2]: 0 n (%)
- Neck pain [2]: 1 (8%) n (%)
- Osteoarthritis [2]: 0 n (%)
- Rash [2]: 0 n (%)
- Toothache [2]: 1 (8%) n (%)
- Wound [2]: 0 n (%)
- renal excretion [3]: 3 times the glomerular filtration rate
- effect on urine glucose output ([4]; Day 2): relatively no effect
- 24-hour urine glucose, max ([4]; Day 2, N = 13): 43.9 mmol
- 24-hour urine glucose, mean (SD) ([4]; Day 2, N = 13): 13.6 (13.4) mmol
- 24-hour urine glucose, median ([4]; Day 2, N = 13): 10.9 mmol
- 24-hour urine glucose, min ([4]; Day 2, N = 13): 1.1 mmol
- changes in fasting plasma glucose concentrations from baseline [5]: remained relatively stable
- mean lactate concentrations [6]: increase or increasing trend
- AUC(0-t) [7, 16]: 7140 ng·h/mL
- Cmax ([7]; human, in vivo): 1020 ng/mL
- Tmax ([7]; plasma, Day 3, MET BID, median (range)): 4.0 (1.0 - 6.0) h
- percent filtered glucose excreted in urine, max [8]: 4.71%
- percent filtered glucose excreted in urine, mean (SD) [8]: 1.41 (1.52) percent
- percent filtered glucose excreted in urine, median [8]: 0.95%
- percent filtered glucose excreted in urine, min [8]: 0.10%
- percent of filtered glucose excreted in the urine, mean [8]: 1.4%
- effect of remogliflozin etabonate on PK parameters ([9]; metformin PK with MET + RE vs MET): no effect

- fluid balance (median) [1]: -1145 mL
- mean lactate concentrations [6]: unchanged or decreased slightly
- Tmax ([7]; human, in vivo): 3 h
- AUC(0-t) ([7]; human, in vivo, AUC(0–last)): 98.9 ng·h/mL
- Cmax ([7]; human, in vivo): 79.5 ng/mL
- AUC(0-last) point estimate (GLSM Ratio) ([9]; MET + RE / RE): 1.00
- Cmax point estimate (GLSM Ratio) ([9]; MET + RE / RE): 0.85
- decrease in Cmax ([9]; MET + RE compared to remogliflozin etabonate alone): 15%
- effect of metformin on AUC ([9]; MET + RE vs remogliflozin etabonate alone): no effects
Compound: CCOC(=O)OC[C@H]1O[C@@H](Oc2nn(C(C)C)c(C)c2Cc2ccc(OC(C)C)cc2)[C@H](O)[C@@H](O)[C@@H]1O [Remogliflozin etabonate]
- safety and tolerability [10]: safe and well tolerated
- urinary glucose excretion [11]: increase urinary glucose excretion in a dose-dependent manner
- Abdominal pain upper [2]: 1 (8%) n (%)
- Any Event [2]: 2 (15%) n (%)
- Back pain [2]: 0 n (%)
- Dizziness [2]: 0 n (%)
- Dyspepsia [2]: 0 n (%)
- Fatigue [2]: 0 n (%)
- Headache [2]: 0 n (%)
- Hypoglycemia [2]: 0 n (%)
- Muscle spasms [2]: 1 (8%) n (%)
- Nasopharyngitis [2]: 0 n (%)
- Neck pain [2]: 0 n (%)
- Osteoarthritis [2]: 0 n (%)
- Rash [2]: 0 n (%)
- Toothache [2]: 0 n (%)
- Wound [2]: 0 n (%)
- 24-hour urine glucose, max ([4]; Day 2, N = 13): 796 mmol
- 24-hour urine glucose, median ([4]; Day 2, N = 13): 497 mmol
- 24-hour urine glucose, min ([4]; Day 2, N = 13): 384 mmol
- antidiabetic efficacy [12]: exhibit antidiabetic efficacy
- changes in fasting plasma glucose concentrations from baseline [5]: small decreases
- percent filtered glucose excreted in urine, max [8]: 61.3%
- percent filtered glucose excreted in urine, mean (SD) [8]: 51.3 (7.02) percent
- percent filtered glucose excreted in urine, median [8]: 51.8%
- percent filtered glucose excreted in urine, min [8]: 38.4%
- percent of filtered glucose excreted in the urine, mean [8]: approximately 50%
- inhibition of metabolic enzymes and transporters [13]: lack of inhibition
- urinary glucose excretion [14]: increase urinary glucose excretion in a dose-dependent manner

- Tmax ([7]; human, in vivo): 3 h
- AUC(0-t) [7, 16]: 6810 ng·h/mL
- Cmax ([7]; human, in vivo): 2690 ng/mL
Compound: Cc1c(Cc2ccc(OC(C)C)cc2)c(O[C@@H]2O[C@H](CO)[C@@H](O)[C@H](O)[C@H]2O)nn1C(C)C [Remogliflozin]
- inhibition of metabolic enzymes and transporters [13]: lack of inhibition

Compound: NS(=O)(=O)c1cc2c(cc1Cl)NCNS2(=O)=O [hydrochlorothiazide]
- effect on the clearance of metformin [15]: no significant effect
